Data published in ChEMBL document CHEMBL1155131, “Discovery of conformationally rigid 3-azabicyclo[3.1.0]hexane-derived dipeptidyl peptidase-IV inhibitors” (Bioorg Med Chem Lett, 2008).
pIC50: −log10 of the molar value.

Experiments:
Dipeptidyl peptidase 2 = Dipeptidyl peptidase 2 (Homo sapiens, UniProt Q9UHL4); test: Inhibition of DPP2
Prolyl endopeptidase = target: T1, Prolyl endopeptidase (Homo sapiens, UniProt P48147); test: Inhibition of PPCE
T1 sequence (P48147 whole entry): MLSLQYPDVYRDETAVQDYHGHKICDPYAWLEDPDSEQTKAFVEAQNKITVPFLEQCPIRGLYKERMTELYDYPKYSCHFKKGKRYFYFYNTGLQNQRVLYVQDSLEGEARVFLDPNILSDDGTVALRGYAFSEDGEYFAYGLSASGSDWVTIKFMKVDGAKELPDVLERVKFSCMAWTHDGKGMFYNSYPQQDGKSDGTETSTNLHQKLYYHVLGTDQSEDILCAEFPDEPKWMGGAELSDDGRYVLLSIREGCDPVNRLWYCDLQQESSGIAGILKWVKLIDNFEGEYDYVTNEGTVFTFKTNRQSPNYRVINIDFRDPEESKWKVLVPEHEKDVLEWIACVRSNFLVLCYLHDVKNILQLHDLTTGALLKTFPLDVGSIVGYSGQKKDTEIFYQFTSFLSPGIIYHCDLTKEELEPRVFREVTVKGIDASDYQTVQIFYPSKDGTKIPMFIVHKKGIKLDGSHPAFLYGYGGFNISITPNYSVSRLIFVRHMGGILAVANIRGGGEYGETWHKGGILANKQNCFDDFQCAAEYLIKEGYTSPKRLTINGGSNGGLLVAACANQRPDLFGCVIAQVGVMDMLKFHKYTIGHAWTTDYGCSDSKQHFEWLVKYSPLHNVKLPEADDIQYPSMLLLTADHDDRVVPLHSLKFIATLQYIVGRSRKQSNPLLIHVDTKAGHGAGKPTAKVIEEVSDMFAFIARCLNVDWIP

[1] = Antiproliferative activity against T cells; settings: T-cell
Dipeptidyl peptidase 8 = Dipeptidyl peptidase 8 (Homo sapiens, UniProt Q6V1X1); test: Inhibition of DPP8
Dipeptidyl peptidase 9 = Dipeptidyl peptidase 9 (Homo sapiens, UniProt Q86TI2); test: Inhibition of DPP9
Dipeptidyl peptidase 4 = Dipeptidyl peptidase 4 (Homo sapiens, UniProt P27487); test: Inhibition of human plasma DPP4; type: cell-free
Dipeptidyl peptidase 4, sequence (P27487 whole entry): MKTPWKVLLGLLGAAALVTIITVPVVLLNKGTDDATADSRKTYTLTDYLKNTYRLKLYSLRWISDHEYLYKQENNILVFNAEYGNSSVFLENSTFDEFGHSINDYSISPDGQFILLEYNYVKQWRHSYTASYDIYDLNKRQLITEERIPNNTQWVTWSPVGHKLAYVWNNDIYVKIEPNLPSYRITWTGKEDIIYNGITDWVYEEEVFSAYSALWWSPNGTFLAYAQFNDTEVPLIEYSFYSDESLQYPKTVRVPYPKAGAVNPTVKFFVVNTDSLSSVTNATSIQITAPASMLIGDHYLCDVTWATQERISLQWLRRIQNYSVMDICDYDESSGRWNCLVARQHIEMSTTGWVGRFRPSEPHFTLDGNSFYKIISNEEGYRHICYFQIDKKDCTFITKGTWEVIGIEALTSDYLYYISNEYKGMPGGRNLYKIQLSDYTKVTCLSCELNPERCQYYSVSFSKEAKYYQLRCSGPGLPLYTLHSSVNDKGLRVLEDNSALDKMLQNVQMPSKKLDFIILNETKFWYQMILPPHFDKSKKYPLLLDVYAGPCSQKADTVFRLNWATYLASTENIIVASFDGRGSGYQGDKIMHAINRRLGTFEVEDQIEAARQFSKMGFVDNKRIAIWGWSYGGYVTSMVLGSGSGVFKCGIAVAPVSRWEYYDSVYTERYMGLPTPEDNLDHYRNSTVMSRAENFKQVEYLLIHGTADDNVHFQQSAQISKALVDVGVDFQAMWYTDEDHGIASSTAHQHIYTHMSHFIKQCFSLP

Dipeptidyl peptidase 8, sequence (Q6V1X1 whole entry): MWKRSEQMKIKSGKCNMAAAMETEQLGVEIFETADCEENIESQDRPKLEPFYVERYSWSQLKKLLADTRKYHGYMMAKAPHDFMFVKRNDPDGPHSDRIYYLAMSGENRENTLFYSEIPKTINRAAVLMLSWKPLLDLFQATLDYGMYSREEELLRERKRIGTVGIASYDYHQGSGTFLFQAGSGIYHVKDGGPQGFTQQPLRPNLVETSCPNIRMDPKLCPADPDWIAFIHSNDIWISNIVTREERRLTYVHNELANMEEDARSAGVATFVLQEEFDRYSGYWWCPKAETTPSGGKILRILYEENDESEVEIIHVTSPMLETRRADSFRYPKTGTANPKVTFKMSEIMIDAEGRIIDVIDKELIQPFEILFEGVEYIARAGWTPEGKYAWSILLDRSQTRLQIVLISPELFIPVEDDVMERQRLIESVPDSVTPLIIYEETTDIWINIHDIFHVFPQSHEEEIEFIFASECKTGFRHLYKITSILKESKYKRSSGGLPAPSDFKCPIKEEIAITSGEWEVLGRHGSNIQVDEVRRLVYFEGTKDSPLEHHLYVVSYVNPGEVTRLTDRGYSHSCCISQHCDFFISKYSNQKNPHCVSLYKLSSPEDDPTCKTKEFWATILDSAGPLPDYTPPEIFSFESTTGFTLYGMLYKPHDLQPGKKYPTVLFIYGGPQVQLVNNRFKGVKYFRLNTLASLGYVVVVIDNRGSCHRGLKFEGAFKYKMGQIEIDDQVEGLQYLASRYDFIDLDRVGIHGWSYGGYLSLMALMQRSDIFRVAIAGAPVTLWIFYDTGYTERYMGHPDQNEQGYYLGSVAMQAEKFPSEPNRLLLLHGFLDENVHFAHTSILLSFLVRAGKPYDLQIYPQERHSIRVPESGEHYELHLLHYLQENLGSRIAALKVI
Dipeptidyl peptidase 9, sequence (Q86TI2 whole entry): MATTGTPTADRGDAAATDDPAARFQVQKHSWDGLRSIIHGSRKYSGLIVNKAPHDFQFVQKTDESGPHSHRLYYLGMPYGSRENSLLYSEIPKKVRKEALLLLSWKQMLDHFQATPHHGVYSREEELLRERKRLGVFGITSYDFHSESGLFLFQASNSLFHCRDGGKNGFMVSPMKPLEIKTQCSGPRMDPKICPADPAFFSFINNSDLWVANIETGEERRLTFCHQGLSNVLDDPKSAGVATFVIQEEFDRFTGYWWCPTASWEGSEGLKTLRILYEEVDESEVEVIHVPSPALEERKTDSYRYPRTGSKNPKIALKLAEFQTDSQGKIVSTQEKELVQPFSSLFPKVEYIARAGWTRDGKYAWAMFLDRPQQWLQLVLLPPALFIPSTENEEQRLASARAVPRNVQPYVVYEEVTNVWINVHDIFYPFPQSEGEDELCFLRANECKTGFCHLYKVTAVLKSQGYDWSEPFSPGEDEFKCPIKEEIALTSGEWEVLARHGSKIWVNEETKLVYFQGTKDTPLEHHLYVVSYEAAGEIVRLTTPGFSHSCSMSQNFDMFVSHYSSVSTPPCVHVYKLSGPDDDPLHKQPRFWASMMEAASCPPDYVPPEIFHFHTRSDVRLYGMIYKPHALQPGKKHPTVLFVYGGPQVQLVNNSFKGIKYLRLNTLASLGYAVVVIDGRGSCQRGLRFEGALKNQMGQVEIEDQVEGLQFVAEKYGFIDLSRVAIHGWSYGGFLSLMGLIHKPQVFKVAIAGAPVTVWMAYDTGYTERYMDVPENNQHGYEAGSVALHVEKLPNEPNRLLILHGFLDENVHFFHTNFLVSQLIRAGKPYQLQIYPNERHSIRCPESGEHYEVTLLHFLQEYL

pIC50 (Dipeptidyl peptidase 2) | pIC50 (Prolyl endopeptidase) | SMILES | also measured
6.39 | < 5.00 | N#Cc1ccccc1N1C[C@@H]2[C@H](C1)[C@H]2NCC(=O)N1C[C@@H](F)C[C@H]1C#N | 
5.29 | < 4.00 | N#C[C@@H]1C[C@H](F)CN1C(=O)CN[C@H]1[C@@H]2CN(c3nc4ccccc4o3)C[C@@H]21 | 
6.00 | 5.68 | N#Cc1ccc(N2C[C@@H]3[C@H](C2)[C@H]3NCC(=O)N2C[C@@H](F)C[C@H]2C#N)c(C(F)(F)F)c1 | 
5.19 | < 5.00 | N#C[C@@H]1C[C@H](F)CN1C(=O)CN[C@H]1[C@@H]2CN(c3ncccc3[N+](=O)[O-])C[C@@H]21 | 
5.05 |  | CC(=O)c1ccc(N2C[C@@H]3[C@H](C2)[C@H]3NCC(=O)N2C[C@@H](F)C[C@H]2C#N)cc1 | pIC50 [1]: < 5.00
5.66 | < 4.00 | N#C[C@@H]1C[C@H](F)CN1C(=O)CN[C@H]1[C@@H]2CN(c3nccc(C(F)(F)F)n3)C[C@@H]21 | 
7.02 |  | N#Cc1c(Cl)cccc1N1C[C@@H]2[C@H](C1)[C@H]2NCC(=O)N1C[C@@H](F)C[C@H]1C#N | pIC50 (Dipeptidyl peptidase 8): < 5.00; pIC50 [1]: < 5.00
5.74 | 5.04 | N#Cc1cc(F)cc(N2C[C@@H]3[C@H](C2)[C@H]3NCC(=O)N2C[C@@H](F)C[C@H]2C#N)c1 | 
4.78 |  | N#C[C@@H]1C[C@H](F)CN1C(=O)CN[C@H]1[C@@H]2CN(c3ncccn3)C[C@@H]21 | pIC50 (Dipeptidyl peptidase 9): < 4.00
4.97 | 5.85 | N#C[C@@H]1C[C@H](F)CN1C(=O)CN[C@H]1[C@@H]2CN(c3ccccn3)C[C@@H]21 | pIC50 [1]: < 5.00
5.41 | 5.06 | N#Cc1c(F)cc(F)cc1N1C[C@@H]2[C@H](C1)[C@H]2NCC(=O)N1C[C@@H](F)C[C@H]1C#N | 
4.96 | < 4.00 | N#C[C@@H]1C[C@H](F)CN1C(=O)CN[C@H]1[C@@H]2CN(c3nccs3)C[C@@H]21 | 
5.01 |  | CCOC(=O)c1ccc(N2C[C@@H]3[C@H](C2)[C@H]3NCC(=O)N2C[C@@H](F)C[C@H]2C#N)cc1 | 
5.87 |  | N#Cc1cccnc1N1C[C@@H]2[C@H](C1)[C@H]2NCC(=O)N1C[C@@H](F)C[C@H]1C#N | pIC50 [1]: < 5.00
< 5.00 | < 5.00 | N#Cc1c(F)cccc1N1C[C@@H]2[C@H](C1)[C@H]2NCC(=O)N1C[C@@H](F)C[C@H]1C#N | pIC50 (Dipeptidyl peptidase 8): < 5.00
4.88 | 5.07 | N#C[C@@H]1C[C@H](F)CN1C(=O)CN[C@H]1[C@@H]2CN(c3ccc([N+](=O)[O-])cn3)C[C@@H]21 | 
4.74 |  | N#Cc1ccc(N2C[C@@H]3[C@H](C2)[C@H]3NCC(=O)N2C[C@@H](F)C[C@H]2C#N)cc1 | 
5.06 | 5.04 | N#C[C@@H]1C[C@H](F)CN1C(=O)CN[C@H]1[C@@H]2CN(c3ccc(Cl)cn3)C[C@@H]21 | pIC50 [1]: < 5.00

pIC50 (Dipeptidyl peptidase 2) | pIC50 (Prolyl endopeptidase) | SMILES | also measured
< 5.00 | < 5.00 | N#Cc1cc(F)ccc1N1C[C@@H]2[C@H](C1)[C@H]2NCC(=O)N1C[C@@H](F)C[C@H]1C#N | 
4.96 | < 4.00 | N#Cc1ccc(N2C[C@@H]3[C@H](C2)[C@H]3NCC(=O)N2C[C@@H](F)C[C@H]2C#N)nc1 | 
5.29 | < 5.00 | N#C[C@@H]1C[C@H](F)CN1C(=O)CN[C@H]1[C@@H]2CN(c3nc4ccccc4s3)C[C@@H]21 | 
5.89 | < 5.00 | N#Cc1cccc(F)c1N1C[C@@H]2[C@H](C1)[C@H]2NCC(=O)N1C[C@@H](F)C[C@H]1C#N | 
 |  | N#C[C@@H]1C[C@H](F)CN1C(=O)CN[C@H]1[C@@H]2CN(c3ccc(C(=O)NC4CC4)cc3)C[C@@H]21 | pIC50 [1]: < 5.00
 |  | N#C[C@@H]1CCCN1C(=O)CNC12CC3CC(CC(O)(C3)C1)C2 [VILDAGLIPTIN] | pIC50 [1]: < 5.00
 |  | CNC(=O)c1ccc(N2C[C@@H]3[C@H](C2)[C@H]3NCC(=O)N2C[C@@H](F)C[C@H]2C#N)cc1 | pIC50 [1]: < 5.00
5.89 | < 5.00 | N#Cc1c(N2C[C@@H]3[C@H](C2)[C@H]3NCC(=O)N2C[C@@H](F)C[C@H]2C#N)cccc1C(F)(F)F | 
6.00 |  | N#Cc1ccc(N2C[C@@H]3[C@H](C2)[C@H]3NCC(=O)N2C[C@@H](F)C[C@H]2C#N)c(Cl)c1 | 
 |  | N[C@@H](CCCCNC(=O)OCc1ccc([N+](=O)[O-])cc1)C(=O)N1CCCC1 | pIC50 [1]: 6.08
4.66 |  | N#C[C@@H]1C[C@H](F)CN1C(=O)CN[C@H]1[C@@H]2CN(c3ccc(C(N)=O)cc3)C[C@@H]21 | pIC50 [1]: < 5.00
5.36 | < 4.00 | N#Cc1cc(C(F)(F)F)ccc1N1C[C@@H]2[C@H](C1)[C@H]2NCC(=O)N1C[C@@H](F)C[C@H]1C#N | 
5.55 |  | N#Cc1ccc(N2C[C@@H]3[C@H](C2)[C@H]3NCC(=O)N2CC(F)(F)C[C@H]2C#N)nc1 | 
 |  | N#Cc1ccc(N2C[C@@H]3[C@H](C2)[C@H]3NCC(=O)N2CCSC2)nc1 | pIC50 (Dipeptidyl peptidase 4): < 5.00
5.40 | < 4.00 | N#C[C@@H]1C[C@H](F)CN1C(=O)CN[C@H]1[C@@H]2CN(c3ccc(C(F)(F)F)cn3)C[C@@H]21 | 
6.65 | < 5.00 | N#C[C@@H]1C[C@H](F)CN1C(=O)CN[C@H]1[C@@H]2CN(c3cnc4ccccc4n3)C[C@@H]21 | 
5.56 | < 5.00 | N#Cc1ccc(N2C[C@@H]3[C@H](C2)[C@H]3NCC(=O)N2C[C@@H](F)C[C@H]2C#N)c(F)c1 | 
6.79 |  | NCC[C@H](N)C(=O)N1CCCCC1 | 

SMILES | pIC50 (Dipeptidyl peptidase 2) | pIC50 (Prolyl endopeptidase) | also measured
N#Cc1c(F)cc(N2C[C@@H]3[C@H](C2)[C@H]3NCC(=O)N2C[C@@H](F)C[C@H]2C#N)cc1F | 4.96 | 5.01 | 
N#Cc1ccc(N2C[C@@H]3[C@H](C2)[C@H]3NCC(=O)N2C[C@@H](F)C[C@H]2C#N)cc1Cl | 6.04 |  | 
N#Cc1ccc(N2C[C@@H]3[C@H](C2)[C@H]3NCC(=O)N2C[C@@H](F)C[C@H]2C#N)cc1F | 5.92 | 5.00 | pIC50 [1]: < 5.00
